These are literature values, as cited in US20170020833A1, “METHOD FOR TREATING AND/OR PREVENTING ACNE SCARS WITH A FIXED COMBINATION OF ADAPALENE OR ITS SALTS AND BENZOYL PEROXIDE” (GALDERMA RESEARCH & DEVELOPMENT, priority 2014, published 2017).

Structures are written as SMILES.

This series has as its system procollagen, MMP-1, 3 and MMP-9 in photodamage skin. Conditions: oral or topical; leading to MMP-1, 3 and MMP-9 decrease in relation to treatment duration.

As to `CC1=C(/C=C/C(C)=C/C=C/C(C)=C\C(=O)O)C(C)(C)CCC1` [isotretinoin], the “Effect on UV-induced loss of procollagen” value is reported as “protects against UV-induced loss of procollagen”.
